Results taken from US6309825A, “Analytical and therapeutic agents” (University of Leicester, priority 1995, dated 2001).
Values belong to the compound of their own block, whether it stands above or below them.

Columns and labels:
avidin [1] = biological target: T1, avidin (Gallus gallus, UniProt P02701); assay: Enzyme-linked avidin binding assay, competition experiments; conditions: competitor 10 μM, co-incubation, avidin-HRP, paraformaldehyde-fixed DNA
T1 construct: mature chain without signal peptide
Experimental: Treatment of DNA with methylene blue leads to the oxidation of deoxyguanosine residues to 8-oxodeoxyguanosine. DNA (0.5 mg/ml in water) was incubated in the presence of methylene blue (20 μg/ml final concentration in 0.1 M tris, pH 8.5) in a petri dish on ice shielded from a white light source by 0.5 cm water in an upturned petri dish lid (light source to DNA distance was 3 cm). Irradiation was for 3 hours at which time solid sodium chloride was added to a final concentration of 1 M and the DNA precipitated with ethanol. The DNA was removed and dissolved in de-ionized water. The DNA was re-precipitated and washed twice more to remove any remaining methylene blue.
Avidin-horse radish peroxidase (avidin-HRP) (Sigma) binding to methylene blue-treated DNA was compared to its binding to untreated DNA. Treatment of DNA with methylene blue leads to the generation of oxidised base products including 8-oxodeoxyguanosine. Competition experiments were carried out to define the specificity of binding of avidin to DNA. Damaged and native DNA bind to ELISA plates and in initial experiments, native and methylene blue-treated double-stranded and single-stranded DNA were bound to ELISA plates (Immuno plate MAXISORP (RTM), Nunc) at 50 μg/ml in PBS (50 μl/well). However since it is difficult to quantify the amount of DNA remaining after the various procedures, Millipore MULTISCREEN (RTM)filtration plates were used in this experiment. Native and methylene blue-treated double-stranded and single-stranded DNA ([…] in water) was added to appropriate wells ([…]) of MULTISCREEN-HV 96-well plates. […] Following washing with PBS 3 times, detection of bound peroxidase-labelled avidin was performed using 50 μl/well of o-phenylenediamine (0.5 mg/ml in 0.05 M phosphate-citrate, pH 5.0, and containing 0.03% w/v sodium perborate as a substitute for H2 O2) as substrate; the reaction was stopped after 20 minutes at room temperature using 2M […] (25 μl/well) and the product determined spectrophotometrically at 492 nm. […]

avidin [2] = biological target: T1, avidin; assay: Fluorescent binding assay (FBA) with avidin-FITCS; conditions: for concentration at which avidin binding reached a maximum: base bound to a substratum of fixed cells, avidin-FITCS
Experimental: (§1) Cultures of IMR 32 cells were grown in 96-well plates as described above and allowed to differentiate. Untreated cultures were fixed and permeabilised as above to provide a substrate to which 8-oxodeoxyguanosinewould bind thus permitting FAAs to be performed. Various concentrations of either the normal or the oxidised base were incubated on these plates (100 μl/well) for 1 hour. The ELISA plates were then washed 3 times with PBS before visualising bound base with either avidin-conjugated FITCS (1:200 in PBS for 1 hour) or with a FITCS-conjugated anti-biotin monoclonal antibody (1:80 in PBS for 1 hour). The level of binding was quantified with a fluorescence plate reader (Denley, Billingshurst, U.K.), excitation 485 nm and emission 535 nm.

[3] = test system: monoclonal antibody to biotin; assay: Fluorescent binding assay (FBA) with FITCS-conjugated anti-biotin monoclonal antibody; parameters: species or system goat; conditions: base bound to a substratum of fixed cells
Experimental: Avidin-FITCS conjugate was from Sigma (A 2050), as was monoclonal, goat anti-biotin-FITCS conjugate antibody (clone number BN-34) (F4024).
as §1

avidin [4] = biological target: T1, avidin; assay: Inhibition of avidin binding to hydrogen peroxide treated cells; conditions: avidin conjugate preincubated with competitor; all at 100 μM (biotin 10 μM)
Experimental: Cells were washed in warm PBS. Cultures were fixed and permeabilised with ice-cold methanol for 15 minutes, rehydrated in PBS before blocking with PBS containing 10% (w/v) normal goat serum (NGS). […] The control, PBS in the absence of competitor, was treated in parallel. […] Fixed cells were incubated with the solutions for 1 hour in the dark at room temperature. The slides were washed three times in PBS before coverslips were mounted on the slides using VECTORSHIELD (RTM) (Vector Laboratories, Peterborough, U.K.), a glycerol-based anti-bleaching mountant.

IMR 32 cells [5] = assay: UVA exposure with α-tocopherol preincubation, fluorescent assessment of avidin binding; format: cell-based; conditions: 200 μM preincubation
Experimental: (§2) Differentiated cells were exposed to UVA irradiation with or without preincubation with the lipid-phase antioxidant α-tocopherol. The level of UVA irradiation was monitored in each experiment with a radiometer. Antioxidant was added to the existing medium 24 hours prior to irradiation at a final concentration of 200 μM (stock made up immediately prior to use in ethanol). […] Medium was removed prior to irradiation and cells washed in HBSS. The cells were irradiated from above at room temperature. Controls were sham irradiated. The cells were fixed as described below.
Cells were washed in warm PBS. Cultures were fixed and permeabilised with ice-cold methanol for 15 minutes, rehydrated in PBS before blocking with PBS containing 10% (w/v) normal goat serum (NGS). […] DNA damage was visualised with avidin-conjugated fluorescein isothiocyanate (FITCS) (1:200 in PBS for 1 hour) or with a FITCS-conjugated anti-biotin monoclonal antibody (1:80 in PBS for 1 hour) for either fluorescence microscopy or for quantitative assessment with a fluorescence plate reader (Denley, Billingshurst, U.K.).

IMR 32 cells [6] = assay: MTT assay after UVA exposure; format: cell-based; conditions: α-tocopherol pre-incubation, 24 hours post-irradiation
Experimental: as §2

avidin [7] = biological target: T1, avidin; assay: Capillary electrophoresis analysis of binding
Experimental: Capillary electrophoresis was performed using a Beckman […].) controlled by accompanying System Gold (RTM) software. All analyses were carried out using an untreated fused silica capillary of 57 cm total length and 75 μm internal diameter. […] Samples were then placed on ice until analysed by CE. The electrophoresis solution was 10 mM sodium tetraborate (pH 9.3) filtered through a 0.45 μm filter. Samples were loaded using positive pressure (nominal 0.5 psi) for 5 seconds at 25° C. The run time was 10 minutes under an applied voltage of 30 kV with a rise time of 0.17 minutes (approx. 10.2 seconds). Detection was by absorbence at 200 nm and comparison with known standards. Concentration of each compound was estimated from peak height.

IMR 32 cells [8] = assay: cells
Experimental: After differentiation, media was carefully aspirated and prewarmed Hanks buffered salt solution (HBSS) added to each well (200 μl) with or without various concentrations of freshly prepared hydrogen peroxide. The cultures were incubated with hydrogen peroxide for 1 hour after which the HBSS was replaced with fresh media (α-MEM with 5% (v/v) HIFCS and 1% (v/v) non-essential amino acids) and allowed to recover for 24 hours under standard incubation conditions before cell death was assessed using the MTT assay and binding of avidin assessed by fluorescence analysis.
Cells were prefixed by the addition of 2% (w/v) paraformaldehyde (in phosphate buffered saline (PBS) at pH 7.4) for 15 mins after washing the cells with PBS. Cells were washed in warm PBS. Cultures were fixed and permeabilised with ice-cold methanol for 15 minutes, rehydrated in PBS before blocking with PBS containing 10% (w/v) normal goat serum (NGS). The blocking solution was washed off with PBS containing 0.2% (w/v) NGS.

T1 sequence (P02701 25-152): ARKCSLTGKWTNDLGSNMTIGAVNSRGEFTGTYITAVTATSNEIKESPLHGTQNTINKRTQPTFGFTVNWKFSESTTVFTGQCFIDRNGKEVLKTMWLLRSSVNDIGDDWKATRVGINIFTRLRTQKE

inhibition of avidin binding to double-stranded, methylene blue treated DNA (avidin [1]): inhibited binding
Compound: Nc1nc2c(ncn2[C@@H]2O[C@H](CO)[C@@H](O)[C@H]2O)c(=O)[nH]1 [guanosine]

concentration at which avidin binding reached a maximum (avidin [2]): 10^-6 M
concentration at which binding of the monoclonal antibody to biotin reached a maximum [3]: 10^-9 M
Compound: Nc1nc2c(ncn2[C@H]2C[C@H](O)[C@@H](CO)O2)c(=O)[nH]1 [deoxyguanosine]

rate of binding to avidin (avidin [7]; purely chemical system, minimal preincubation): extremely rapid
Compound: Nc1nc2[nH]c(=O)[nH]c2c(=O)[nH]1 [8-oxoguanine]

Continued, compound first:

Compound: Nc1nc2nc[nH]c2c(=O)[nH]1 [guanine]
inhibition of avidin binding to double-stranded, methylene blue treated DNA (avidin [1]): inhibited binding
inhibition of avidin-FITCS binding to hydrogen peroxide treated cells (avidin [4]): did not

Compound: Cc1c(C)c2c(c(C)c1O)CCC(C)(CCCC(C)CCCC(C)CCCC(C)C)O2 (stereo not drawn) [α-tocopherol]
effect on avidin binding to UVA irradiated cells, longer periods of irradiation (IMR 32 cells [5]; 24 hours post-irradiation): not effective in reducing binding
effect on avidin binding to UVA irradiated cells, short periods of irradiation (IMR 32 cells [5]; 24 hours post-irradiation): reduced the level of avidin binding
effect on avidin binding over the range of irradiation times studied (IMR 32 cells [5]; multiple range ANOVA): significantly (p=0.003) reduced the binding of avidin
effect on UVA-induced increase in MTT metabolism (IMR 32 cells [6]): prevented

Compound: O=C(O)CCCC[C@@H]1SC[C@@H]2NC(=O)N[C@@H]21 [biotin]
recovery of unbound biotin after incubation with avidin (avidin [7]; biotin 100 μM, various concentrations of avidin, theoretical values assume 4 biotin molecules per avidin): very close to the theoretical values expected
inhibition of avidin-FITCS binding to hydrogen peroxide treated cells (avidin [4]): prevented binding

Compound: Nc1nc2c([nH]c(=O)n2[C@H]2C[C@H](O)[C@@H](CO)O2)c(=O)[nH]1 [8-oxodeoxyguanosine]
inhibition of avidin binding to double-stranded, methylene blue treated DNA (avidin [1]): greatest inhibition
theoretical sensitivity of avidin binding (detectable amount) (avidin [2]; assuming 100% binding of 8-oxodeoxyguanosine to the substratum): 10^4 molecules
concentration at which avidin binding reached a maximum (avidin [2]): 10^-15 M
concentration at which binding of the monoclonal antibody to biotin reached a maximum [3]: 10^-9 M
inhibition of avidin-FITCS binding to hydrogen peroxide treated cells (avidin [4]): inhibited binding

Compound: OO [hydrogen peroxide]
hydrogen peroxide concentration at which the level of avidin binding plateaued (IMR 32 cells [8]; 1 hour exposure, 24 hours recovery): 100 nM
minimal effective concentration (IMR 32 cells [8]; Homo sapiens, IMR-32, 1 h, read-out: hydrogen peroxide concentration at which avidin binding was statistically different from control): 0.01 µM
